# Assay results taken from paper PMC6546875, “Efficacy of Antimicrobial Peptide DP7, Designed by Machine-Learning Method, Against Methicillin-Resistant Staphylococcus aureus” (Frontiers in Microbiology, 2019).
# Where “and” joins values, the source holds several entries; their conditions need not be identical. Identical values can stand only once. Counter-ions that a name gives are not always drawn. Like-named read-outs stand apart in the source and are kept apart here. Marks after values point to notes of the source that are not given here. No end group written: not given here.
# Tests used:
# S. aureus DP7-R = format: cell-based, Staphylococcus aureus; settings: change from 1× MIC (ATCC 25923) to n× MIC (DP7-R)
# Method: Subsequently, the bacterial samples were counted at different time points (0, 1, 2, 4, 6, 8, 18, and 24 h).
# For every 48 h, we transferred 2% of each culture to new flasks containing fresh medium with a twofold higher DP7 concentration. […] Aliquots from each population were stored in 20% glycerol at -80°C.
# S. aureus ATCC 25923 [1] = experiment: microbe, parasite or virus in culture; settings: Staphylococcus aureus, ATCC25923, 22 h, read-out: MIC for ATCC 25923
# S. aureus = experiment: In vitro time-killing assay; format: cell-based, Staphylococcus aureus; settings: Figure 1; S. aureus ATCC 25923 and ATCC 33591
# MRSA strain ATCC 33591 = experiment: Murine model of MRSA blood stream infection; format: in vivo, C57 female mice; settings: 10 mg/kg i.v., 72 h, vs PBS-treated mice, n = 5
# Method: A well-characterized murine model of blood stream infection was employed to study the pharmacodynamics profiles of DP7 and compare them with those of vancomycin. Briefly, C57 female mice (body weight 17 g ± 1 g), purchased from Hua Fu Kang Biological Technology Co., Ltd (Beijing, China), were intravenously infected with 1 × 10^8 CFU/100 μL of MRSA strain ATCC 33591 in the logarithmic growth phase (recovery on defibrinated sheep blood agar, Oxoid, United Kingdom). One hour after infection, the mice were treated with various doses of DP7 (0.5, 1, and 2 mg/kg), while the mice in the control group were injected with the same volume of saline. Vancomycin at 10 mg/kg was used as the positive control. Survival and weight changes were observed every 24 h for 1 week. At 24 and 72 h, organs, including the heart, liver, spleen, lung, kidney, and blood were collected and the bacterial load was counted for each murine. At 72 h, the liver, spleen, lungs, and kidneys were fixed with 4% paraformaldehyde for 1 week, sectioned at 4 μm after processing for paraffin embedding, and then stained with hematoxylin and eosin (H&E). All animal procedures were approved and controlled by the Institutional Animal Care and Treatment Committee of Sichuan University and conducted according to the Animal Care and Use Guidelines of Sichuan University.
# S. aureus ATCC 25923 [2] = settings: superscript b; ref Shen et al., 2012; cited from earlier work
# Description: Table 1 MIC of various AMPs against S. aureus. | column: MIC for ATCC 25923 (mg/L) || Here, the antimicrobial peptide (AMP) DP7, a short 12 amino acid AMP with broad-spectrum antibacterial activities, was chosen to analyze its potential mechanisms for killing S. aureus.
# S. aureus ATCC 33591 [3] = settings: superscript b; ref Shen et al., 2012; cited from earlier work
# S. aureus ATCC 33591 [4] = format: cell-based, Staphylococcus aureus; settings: ATCC 33591, 22 h
# Method: (§1) The susceptibility testing methods were performed as previously described ([Wiegand et al., 2008]). […] The minimum bactericidal concentration (MBC) endpoint is the lowest concentration of antibacterial agent that kills > 99.9% of the initial bacterial population where no visible growth of bacteria was observed on nutrient agar plates. […] Subsequently, the bacterial samples were counted at different time points (0, 1, 2, 4, 6, 8, 18, and 24 h).
# S. aureus ATCC 25923 [5] = tested on: S. aureus ATCC 25923
# E. coli (ATCC 25922) = format: cell-based, Escherichia coli; settings: ATCC 25922, 22 h
# Method: as §1
# P. aeruginosa (PAO1) = format: cell-based, Pseudomonas aeruginosa; settings: PAO1, 22 h
# Method: as §1
molecule,measurement,setting,value
CC[C@H]1OC(=O)[C@H](C)[C@@H](O[C@H]2C[C@@](C)(OC)[C@@H](O)[C@H](C)O2)[C@H](C)[C@@H](O[C@@H]2O[C@H](C)C[C@H](N(C)C)[C@H]2O)[C@](C)(O)C[C@@H](C)CN(C)[C@H](C)[C@@H](O)[C@]1(C)O [azithromycin],MIC for DP7-R as multiple of the MIC for ATCC 25923,S. aureus DP7-R,1 × MIC
same,MIC,S. aureus ATCC 25923 [1],0.125 µg/mL
CNC(C)C1CCC(N)C(OC2C(N)CC(N)C(OC3OCC(C)(O)C(NC)C3O)C2O)O1 (stereo not shown) [gentamicin],MIC for DP7-R as multiple of the MIC for ATCC 25923,S. aureus DP7-R,4 × MIC
same,MIC use here (time-killing curves),S. aureus,0.125 µg/mL
same,MIC,S. aureus ATCC 25923 [1],0.0625 µg/mL
COc1c(N2C[C@@H]3CCCN[C@@H]3C2)c(F)cc2c(=O)c(C(=O)O)cn(C3CC3)c12 [moxifloxacin hydrochloride],MIC for DP7-R as multiple of the MIC for ATCC 25923,S. aureus DP7-R,1 × MIC
same,MIC,S. aureus ATCC 25923 [1],0.125 µg/mL
"CCn1cc(C(=O)O)c(=O)c2cc(F)c(N3CCNCC3)cc21 [noroxin, norfloxacin]",MIC for DP7-R as multiple of the MIC for ATCC 25923,S. aureus DP7-R,2 × MIC
same,MIC use here (time-killing curves),S. aureus,1 µg/mL
same,MIC,S. aureus ATCC 25923 [1],1 µg/mL
CC1COc2c(N3CCN(C)CC3)c(F)cc3c(=O)c(C(=O)O)cn1c23 (stereo not shown) [ofloxacin],MIC for DP7-R as multiple of the MIC for ATCC 25923,S. aureus DP7-R,2 × MIC
same,MIC,S. aureus ATCC 25923 [1],0.25 µg/mL
CO[C@H]1/C=C/O[C@@]2(C)Oc3c(C)c(O)c4c(O)c(c(/C=N/N5CCN(C)CC5)c(O)c4c3C2=O)NC(=O)/C(C)=C\C=C\[C@H](C)[C@H](O)[C@@H](C)[C@@H](O)[C@@H](C)[C@H](OC(C)=O)[C@@H]1C [rifampicin],MIC for DP7-R as multiple of the MIC for ATCC 25923,S. aureus DP7-R,1 × MIC
CN[C@H](CC(C)C)C(=O)N[C@H]1C(=O)N[C@@H](CC(N)=O)C(=O)N[C@H]2C(=O)N[C@H]3C(=O)N[C@H](C(=O)N[C@H](C(=O)O)c4cc(O)cc(O)c4-c4cc3ccc4O)[C@H](O)c3ccc(c(Cl)c3)Oc3cc2cc(c3O[C@@H]2O[C@H](CO)[C@@H](O)[C@H](O)[C@H]2O[C@H]2C[C@](C)(N)[C@H](O)[C@H](C)O2)Oc2ccc(cc2Cl)[C@H]1O [vancomycin],MIC for DP7-R as multiple of the MIC for ATCC 25923,S. aureus DP7-R,1 × MIC
same,MIC use here (time-killing curves),S. aureus,0.25 µg/mL
same,"bacterial load in heart, liver, spleen, lung, kidney and blood",MRSA strain ATCC 33591,statistically significant reductions
same,MIC,S. aureus ATCC 25923 [1],0.25 µg/mL
"LLGDFFRKSKEKIGKEFKRI VQRIKDFLRNLVPRTES [LL-37, antimicrobial peptide, 37 amino acids]",MIC for ATCC 25923,S. aureus ATCC 25923 [2],14 mg/L and 14^b mg/L
same,MIC for ATCC 33591,S. aureus ATCC 33591 [3],28^b mg/L
RLARIVVIRVAR [Bac2A],MIC for ATCC 33591,S. aureus ATCC 33591 [4],43.7^a mg/L
VQLRIRVAVIRA [HH2],MIC for ATCC 33591,S. aureus ATCC 33591 [4],64^a mg/L
same,MIC for ATCC 25923,"S. aureus ATCC 25923 [5]; ATCC 25923, 22 h",64 mg/L
VQLRIRVCVIRK [DP8],MIC for DP7-R as multiple of the MIC for ATCC 25923,S. aureus DP7-R,4 × MIC
same,MIC for ATCC 25923,"S. aureus ATCC 25923 [5]; ATCC 25923, 22 h",16 mg/L
VQLRIRVCVIRK [DP10],MIC for DP7-R as multiple of the MIC for ATCC 25923,S. aureus DP7-R,4 × MIC
same,MIC for ATCC 25923,"S. aureus ATCC 25923 [5]; logarithmic growth-phase bacteria, 37°C, 22 h, OD600",64 mg/L
VQWRIRVAVIRK [DP7],MBC,S. aureus ATCC 33591 [4],64 µg/mL
same,MIC for ATCC 33591,S. aureus ATCC 33591 [4],16^a mg/L
same,MBC,E. coli (ATCC 25922),64 µg/mL
same,MIC,E. coli (ATCC 25922),16 µg/mL
same,MBC,P. aeruginosa (PAO1),64 µg/mL
same,MIC,P. aeruginosa (PAO1),16 µg/mL
same,MBC,"S. aureus ATCC 25923 [5]; ATCC 25923, 22 h",64 µg/mL
same,MIC for ATCC 25923,"S. aureus ATCC 25923 [5]; ATCC 25923, 22 h",16^a mg/L
